Patent publication US8551721B2, “Bioluminescent detection of cyanohydroxy benzothiazole compounds” (Promega Corporation, priority 2008, dated 2013)

Key:
Format in all cases: biochemical
[1] = target: T1, UGT 1A8 (Homo sapiens, UniProt Q9HAW9); test: UGT activity: utilization of substrate by recombinant UGT 1A8 Supersomes; settings: 2 hour incubation at 37° C., plus vs minus UDPGA, background corrected
T1 construct: purchased BD Gentest; host or cells: insect cells (microsomes)
T1 sequence (Q9HAW9 26-530): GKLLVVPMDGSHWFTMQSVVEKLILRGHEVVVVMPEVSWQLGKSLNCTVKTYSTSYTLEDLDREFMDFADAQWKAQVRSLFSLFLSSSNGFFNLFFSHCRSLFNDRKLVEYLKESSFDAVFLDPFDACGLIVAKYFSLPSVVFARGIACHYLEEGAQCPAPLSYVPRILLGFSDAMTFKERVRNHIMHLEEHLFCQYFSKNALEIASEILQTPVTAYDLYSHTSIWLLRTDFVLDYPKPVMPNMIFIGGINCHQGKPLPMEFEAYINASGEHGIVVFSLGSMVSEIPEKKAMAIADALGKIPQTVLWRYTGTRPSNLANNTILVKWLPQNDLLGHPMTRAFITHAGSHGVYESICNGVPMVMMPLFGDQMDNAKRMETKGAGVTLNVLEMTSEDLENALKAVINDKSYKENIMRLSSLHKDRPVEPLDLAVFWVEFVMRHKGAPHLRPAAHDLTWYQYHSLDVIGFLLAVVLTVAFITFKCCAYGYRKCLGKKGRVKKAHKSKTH
Description: (§1) The invention includes a method of determining activity of the uridine 5′-diphospho-glucuronosyltransferase (UDP-glucuronosyltransferase, or UGT) family enzymes in vitro. Briefly, UGT enzymes from overexpressed insect microsomes (Supersomes™, BD Gentest™) or animal tissue microsomes (Xenotech, BD Gentest™) were incubated with a cyanobenzothiazole substrate of the invention and the cofactor UDP-glucuronic acid (UDPGA) at 37° C. in buffer at physiological pH containing MgCl2 and alamethicin (typically, 50 mM TES, pH 7.5, 8 mM MgCl2, 4 mM UDPGA (Sigma) and 25 μg/mL alamethicin (Sigma)). Following the UGT enzyme reaction, an equal volume of P450-Glo Luciferin Detection Reagent (Promega) containing 15-30 mM D-cysteine-HCl.H2O (Sigma) was added and the plate was mixed and incubated at room temperature, typically for 20-30 minutes. […]
(§2) During this incubation, the cysteine reacts with the cyanobenzathiozole substrate to yield a D-luciferin derivative. […] Therefore, activity of the UGT enzyme can be measured by analyzing the difference (lower or no output) in relative light units (RLU) of a sample in which glucuronidation occurs compared to a sample that was run under the same conditions with no added UDPGA cofactor. […]
(§3) Reactions were assembled in a white 96-well plate. […] After the incubation was completed, the plate was read on a Veritas™ luminometer (Turner BioSystems, Inc.; Sunnyvale, Calif.). […]

[2] = target: T2, UGT 1A9 (Homo sapiens, UniProt O60656); test: UGT activity: utilization of substrate by recombinant UGT 1A9 Supersomes; settings: 2 hour incubation at 37° C., plus vs minus UDPGA, background corrected
T2 construct: purchased BD Gentest; host or cells: insect cells (microsomes)
T2 sequence (O60656 26-530): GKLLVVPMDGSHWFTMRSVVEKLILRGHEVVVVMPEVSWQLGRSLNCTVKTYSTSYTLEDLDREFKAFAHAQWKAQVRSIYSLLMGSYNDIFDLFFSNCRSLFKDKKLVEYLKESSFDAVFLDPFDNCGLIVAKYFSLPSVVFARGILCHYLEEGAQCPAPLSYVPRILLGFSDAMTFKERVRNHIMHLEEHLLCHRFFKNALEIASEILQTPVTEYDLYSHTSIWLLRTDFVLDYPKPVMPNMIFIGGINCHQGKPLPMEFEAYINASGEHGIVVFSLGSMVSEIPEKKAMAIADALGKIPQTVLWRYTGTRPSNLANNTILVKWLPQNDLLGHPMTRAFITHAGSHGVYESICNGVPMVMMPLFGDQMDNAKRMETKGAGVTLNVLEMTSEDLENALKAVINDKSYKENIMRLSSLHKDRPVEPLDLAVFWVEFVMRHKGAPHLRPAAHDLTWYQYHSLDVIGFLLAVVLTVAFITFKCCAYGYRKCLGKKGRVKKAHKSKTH
Description: as §1, §2, §3

[3] = target: T3, UGT 1A7 (Homo sapiens, UniProt Q9HAW7); test: UGT activity: utilization of substrate by recombinant UGT 1A7 Supersomes; settings: 2 hour incubation at 37° C., plus vs minus UDPGA
T3 construct: purchased BD Gentest; host or cells: insect cells (microsomes)
T3 sequence (Q9HAW7 26-530): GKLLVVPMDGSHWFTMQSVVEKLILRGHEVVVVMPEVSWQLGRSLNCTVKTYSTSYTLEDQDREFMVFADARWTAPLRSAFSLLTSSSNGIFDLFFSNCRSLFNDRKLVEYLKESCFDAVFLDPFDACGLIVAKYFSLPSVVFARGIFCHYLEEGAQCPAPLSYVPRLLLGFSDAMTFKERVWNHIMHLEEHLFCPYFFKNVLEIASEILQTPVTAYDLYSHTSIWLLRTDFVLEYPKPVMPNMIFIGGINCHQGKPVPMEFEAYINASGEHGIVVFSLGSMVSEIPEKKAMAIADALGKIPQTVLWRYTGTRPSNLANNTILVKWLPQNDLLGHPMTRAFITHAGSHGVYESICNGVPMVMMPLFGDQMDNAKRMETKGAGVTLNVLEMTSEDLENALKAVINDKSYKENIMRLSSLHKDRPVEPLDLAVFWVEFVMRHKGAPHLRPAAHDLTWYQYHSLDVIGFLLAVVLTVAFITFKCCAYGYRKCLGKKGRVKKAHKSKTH
Description: as §1, §2, §3

| SMILES | % utilization by UGT 1A8 [1] | % utilization by UGT 1A9 [2] | utilization by UGT 1A7 (in words) [3] |
| --- | --- | --- | --- |
| Cc1cc(O)cc2sc(C#N)nc12 [compound 3138] | over 50% | over 50% | detectable levels of utilization above background |
| Cc1cc(O)cc2sc(C3=NC(C(=O)O)CS3)nc12 (stereo not drawn) [compound 3478] | ≤ 15% | ≤ 15% | only UGT 1A6 was able to utilize compound 3478 to any appreciable extent |
